Experimental data as given in patent publication US6461644B1, “Anesthetizing plastics, drug delivery plastics, and related medical products, systems and methods” (priority 1996, dated 2002).

Key:
[1] = test system: skin; test: Demonstrations of anesthetizing plastic, tapes and adhesive films on skin; assay type: in vivo, human; settings: employed instead of lidocaine
Text: […]. For instance, lidocaine added to polyvinyl chloride is all that is needed to create a soft, stretchy, elastic vinyl milled film or sheet. Like the common vinyl plasticizer di-isooctyl phthalate, lidocaine base slowly migrates to the surface of the formed object, to serve as a sustained source of anesthetic to tissue contacted by the device. The rate of drug delivery is governed by the selected concentration of the drug, the selected plastic resin and the acceptance rate of the part of the body with which the anesthetizing plastic is in contact. […]. A piece of such milled vinyl anesthetic material has remained taped to skin for 10 days without any diminution of anesthetizing effect or apparent loss of plasticization.
. […]. However, when this adhesive-topical anesthetic mixture is applied to polyethylene film as a carrier and is pressed with a warm hand to human skin, sufficient tackiness is observed that the film clings to the applied areas effectively, but can be readily removed. The tacky product is suitably dispensed with the tacky layer protected by contact with silicone coated release paper.
With such devices, in 1-3 hours topical anesthesia of the skin is established, which will last for 2-3 days if the film patch is left in place. Washing the skin e.g. with lauramide surfactant prior to applying the film decreases the onset time for skin anesthesia. […]

[2] = Experimental: In one case, in the course of manufacture, propafenone is dissolved in orally administratable solid granules such as coarse or fine powder of non-biodegradable thermoplastic resin. […] In another embodiment, the resin is formed on or as an implant to release the drug directly to heart tissue or the blood stream, or as a transdermal patch or as a drug-applying ear or nose plug.

With `CCCCNc1ccc(C(=O)OCCN(C)C)cc1` [tetracaine] the “duration of anesthesia following removal compared with lidocaine” value [1] was “substantially longer”.
For `CCN(CC)CC(=O)Nc1c(C)cccc1C` [lidocaine base], the “amount held by PVC” value ([2]; PVC) was “about 50%”, the “amount in solution in PVC that can be employed” value ([2]; PVC) was ≥ 50 % by weight and the “amount held by CPE” value ([2]; chlorinated polyethylene, by milling) was “about 25%”. For the same compound, the “amount held by EP” value ([2]; ethylene propylene, by milling) was “about 25%”.
With `CCCCOc1cc(C(=O)NCCN(CC)CC)c2ccccc2n1` [dibucaine] the “duration of anesthesia following removal compared with lidocaine” value [1] was “substantially longer”.
